pEC50: −log10 of the molar value. Where “and” joins values, the source holds several entries; their conditions need not be identical. Equal values may be shown once. Read-outs that look alike come from different tables or passages of the source.
Experiments:
Ae. aegypti NPYLR7 = Ae. aegypti NPYLR7 (Aedes aegypti, UniProt U5N1H5); test: In vitro calcium (GCaMP6s) FLIPR assay in HEK293T cells transfected with NPYLR7; type: cell-based; conditions: for activation at 100 µM: single replicate of the dose-response curve
Sequence of Ae. aegypti NPYLR7 (U5N1H5 entry or part of it): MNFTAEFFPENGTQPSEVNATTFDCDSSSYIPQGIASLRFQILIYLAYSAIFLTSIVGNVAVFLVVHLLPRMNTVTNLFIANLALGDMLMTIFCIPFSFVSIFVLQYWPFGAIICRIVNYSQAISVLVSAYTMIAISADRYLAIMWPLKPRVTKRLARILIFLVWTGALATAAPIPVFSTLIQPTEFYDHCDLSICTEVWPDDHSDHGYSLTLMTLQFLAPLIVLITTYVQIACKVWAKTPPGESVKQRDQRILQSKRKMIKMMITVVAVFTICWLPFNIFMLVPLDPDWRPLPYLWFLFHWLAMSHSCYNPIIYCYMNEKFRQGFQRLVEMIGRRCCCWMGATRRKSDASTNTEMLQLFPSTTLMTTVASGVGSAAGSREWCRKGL
Method: The in vitro screening assay was adapted from, and carried out at HD Biosciences (HDB, Shanghai) as follows: HEK293T (Thermo Fisher Scientific) cells were grown in Dulbecco’s modified Eagle medium (DMEM) (high glucose, with glutamine), 10% fetal bovine serum, 1% penicillin–streptomycin (Pen/Strep), seeded in a 75 cm^2 flask, and incubated at 37 °C and 5% CO2. Cells were transiently transfected with 1 μg of each plasmid expressing GCaMP6s (Addgene […]) (Chen et al., 2013), mouse Gqα15 (Addgene #40753) (Offermanns and Simon, 1995) and Ae. aegypti NPYLR7 (Addgene #52392) (Duvall et al. 2019) using Lipofectamine 2000 (Invitrogen) in 4 ml of Opti-MEM (Invitrogen). This mixture was added to a plate after 20 min and incubated for 6–8 h. Cells were then trypsinized, resuspended in phenol-free media, and plated in a 384-well plate (Greiner Bio-One) at a density of 20,000 cells per 40 μl, and incubated overnight (37 °C, 5% CO2). Cells were imaged directly in phenol-free media. Plates were loaded into a Molecular Devices fluorescence imaging plate reader (FLIPR) with an excitation wavelength of 470–495 nm and an emitted wavelength of 515–575 nm. Plates were imaged every second for 5 min. After 30 s of baseline fluorescence recording, 10 μl of the test compound in reading buffer [Hank’s Balanced Salt Solution (Gibco) + 20 mM HEPES (Sigma-Aldrich)] was added. Concentrations tested ranged from 0 to 100 μM. Data were collected in raw fluorescence units (RFU).
Each test plate included replicates of 10 μM FMRFa3 (H‐Ala‐Gly‐Gln‐Gly‐Phe‐Met‐Arg‐Phe‐NH2), an Ae. aegypti neuropeptide agonist of NPYLR7 used to calculate the hundred percent effect (HPE). The zero percent effect (ZPE) control was calculated as a response to buffer alone. The Z′ factor was calculated for each plate by Z^′=1-3σHPE+3σZPE/|μHPE-μZPE| . Plates with Z′ < 0.5 were excluded from analysis. Raw fluorescence units (RFU) were converted to percent effect relative to the average of the ZPE and HPE. Percent effect = (sample luminescence − average ZPE)/(average HPE − average ZPE)×100. […] Each replicate was plotted as percent effect versus log[concentration], and replicates with maximal responses between 20 and 250% were used for EC50 calculations. Relative EC50 was calculated using an [Agonist] versus response–variable slope four-parameter model where Y=Bottom+(X^Hillslope)∗(Top-Bottom)/(X^HillSlope+EC50^HillSlope) . For compounds with multiple replicates, the relative EC50 of each replicate was averaged.

[1] = tested on: Aedes aegypti (Orlando strain) females; test: Host-seeking screening assay (miniport olfactometer); type: in vivo; conditions: fed 1 μM in saline, tested 48 h post-meal; for Host-seeking relative to saline (test compound % host-seeking/average matched saline % host-seeking): individual replicates; for Attraction (relative to saline): per-compound value of Fig. 3C
Method: Groups of 60–150 females were placed in bucket cages with a diameter of 21.6 cm and height of 16.5 cm (VWR) and fasted with access to water for 24 h prior to feeding. Meals were delivered to females via Glytube membrane feeders as described previously. Meals consisted of 1.5 ml sheep blood (HemoStat Laboratories), saline (400 mM NaHCO3 + dih2O), or saline and test compound. Lyophilized compounds were stored at room temperature until use. High-concentration stocks (30 mM in 100% dimethyl sulfoxide [DMSO]) (Sigma-Aldrich) were stored at −20 °C and diluted in saline immediately prior to feeding. Once prepared, meals and glycerol heating elements were warmed in a 42 °C water bath for 15 min to provide warmth to attract mosquitos to feed. ATP (1 mM final concentration) and test compounds (1 μM final concentration) were added prior to placing the meal on top of the mesh on the cage containing female mosquitos. Females were allowed 15–20 min to feed to repletion. Abdominal engorgement was scored by eye and confirmed by weighing females to ensure full feeding (Data S1). […] Females were returned to their original cage with a diH2O wick for 48 h prior to behavioral testing. The lethality of each compound was measured by counting the number of dead females in each cage 24 h post-meal.
Miniport olfactometers were fabricated in-house as described previously. Information regarding design, construction, and use can be found at https://github.com/VosshallLab/Miniport-Construction. Miniport canisters consisted of a 6″ × 3″ × 3″ acrylic tube with a mesh screen to allow for air flow. Groups of 10–20 females were loaded into canisters 24 h post-meal. Females were left in canisters overnight to acclimate with two cotton balls soaked in diH20 to prevent desiccation. Behavior trials began 48 h post-meal. Canisters were randomly assigned to attraction traps 1–4 and given 5 min to acclimate. The stimulus end of the trap was connected to a flowmeter that supplied 5% CO2 at a rate of 30 ml/min. Thirty seconds of CO2 flow was supplied to activate females prior to opening the sliding door. Once opened, the sliding door gave females access to the attraction trap baited with a human-scented nylon stocking previously worn by the same experimenter for 8–10 h to collect body odor and stored in a plastic bag at −20 °C until use. After 5 min, the sliding door was closed and attraction was scored as mosquitoes in the attraction trap/total number of mosquitoes. For each experiment data were normalized to the matched average saline attraction from the same experiment (% attracted/average saline attraction). Any dead mosquitoes were excluded from the analysis. Non-fed females and blood-fed females served as environmental control groups while the saline-fed females served as the vehicle control each day. If non-fed or saline-fed females were less than 50% attracted or if blood-fed females were more than 20% attracted behavioral trials were halted and all data from that experimental day were discarded.

[2] = EC50 of the individual assay date/plate (assay date), read-out: EC50
[3] = Figure 1E Summary, second list (n = 48), read-out: Reported Metric (Summary list)
[4] = HEK-293T, single replicate, normalised response
[5] = relative EC50, percent effect relative to 10 μM FMRFa3, read-out: EC50
[6] = sheet Figure 3C, unit inferred, read-out: EC50
[7] = summary EC50 per compound (mean over assay dates), the unit is taken from the neighbouring EC50 (uM) column, read-out: Reported Metric
[8] = Figure 1E Summary, third list (n = 39), read-out: Reported Metric (Summary list)

SMILES	pEC50 (Ae. aegypti NPYLR7; [2])	pEC50 (Ae. aegypti NPYLR7; [3])	activation at 33.3333 µM (Ae. aegypti NPYLR7; [4]) [%]	activation at 100 µM (Ae. aegypti NPYLR7; HEK-293T, normalised response) [%]	pEC50 (Ae. aegypti NPYLR7; [5])	EC50 (Ae. aegypti NPYLR7; [6]) [µM]	EC50 (Ae. aegypti NPYLR7; [7]) [µM]	Attraction (relative to saline) [1]	activation at 3.7037 µM (Ae. aegypti NPYLR7; [4]) [%]	activation at 11.1111 µM (Ae. aegypti NPYLR7; [4]) [%]	pEC50 (Ae. aegypti NPYLR7; [8])	other results
Cc1nc(NC(=N)N)nc2cc(OCC(F)(F)F)ccc12 [TDI-014168]	5.37	5.37	80.4	74.2	5.37	4.26	4.26	1.03	–	–	–	Host-seeking relative to saline (test compound % host-seeking/average matched saline % host-seeking) ([1]; listed as TDI-04168): 1.07
Cc1nc(NC(=N)N)nc2cc(OCC3CCCCC3)ccc12 [TDI-014169]	5.35	5.35	94.5	113	5.35	4.43	4.43	1.025	42.2	78.4	–	–
Cc1nc(NC(=N)N)nc2cc(OCC3CC3)ccc12 [TDI-014171]	6.04	–	–	66.3	6.04	0.912	0.912	0.79	50.2	63.8	6.04	activation at 1.2346 µM (Ae. aegypti NPYLR7; [4]): 32.9%
Cc1nc(NC(=N)N)nc2cc(OCc3ccc(OC(F)(F)F)cc3)ccc12 [TDI-014172]	4.70	4.70	89.6	–	4.71	19.7	19.7	0.975	–	57	–	Host-seeking relative to saline (test compound % host-seeking/average matched saline % host-seeking) ([1]; listed as TDI-04172): 1 and 1.1
COc1ccc(COc2ccc3c(C)nc(NC(=N)N)nc3c2)cn1 [TDI-014173]	5.88	–	101	–	5.88	1.32	1.32	0.88	83.8	74.1	5.88	activation at 0.4115 µM (Ae. aegypti NPYLR7; [4]): 47.7%; activation at 1.2346 µM (Ae. aegypti NPYLR7; [4]): 53.6%
Cc1nc(NC(=N)N)nc2cc(OCC3CCOC3)ccc12 (stereo not shown) [TDI-014174]	5.28	5.28	92.2	102	5.27	5.31	5.31	1	42	–	–	Host-seeking relative to saline (test compound % host-seeking/average matched saline % host-seeking) ([1]; listed as TDI-04174): 1.41
COc1ccc(OCc2ccc3c(C)nc(NC(=N)N)nc3c2)cc1 [TDI-014175]	6.26	–	–	117	6.26	0.547	0.547	0.905	89.7	98.4	6.26	activation at 0.4115 µM (Ae. aegypti NPYLR7; [4]): 35.1%; activation at 1.2346 µM (Ae. aegypti NPYLR7; [4]): 65.9%
CCOc1ccc2c(C)nc(NC(=N)N)nc2c1 [TDI-014177]	5.25	5.25	–	49.6	5.25	5.6	5.6	0.94	–	–	–	Host-seeking relative to saline (test compound % host-seeking/average matched saline % host-seeking) ([1]; listed as TDI-04177): 1.17 and 0.9
Cc1nc(NC(=N)N)nc2cc(OCc3cccnn3)ccc12 [TDI-014179]	4.41	4.41	23.1	–	4.41	39.3	39.3	0.865	–	–	–	–
COc1ccc(COc2ccc3c(C)nc(NC(=N)N)nc3c2)cc1OC [TDI-014180]	8.72	–	81.8	63.8	8.72	0.00192	0.00192	0.93	96.7	74	8.72	activation at 0.0152 µM (Ae. aegypti NPYLR7; HEK-293T, 0.0152 uM, single replicate, normalised response): 42.4%; activation at 0.0457 µM (Ae. aegypti NPYLR7; [4]): 59.4%; activation at 0.1372 µM (Ae. aegypti NPYLR7; [4]): 67.9%; activation at 0.4115 µM (Ae. aegypti NPYLR7; [4]): 85.1%; Host-seeking relative to saline (test compound % host-seeking/average matched saline % host-seeking) ([1]; listed as TDI-04180): 0.93
Cc1nc(NC(=N)N)nc2cc(OCc3cnccn3)ccc12 [TDI-014181]	5.21	5.21	–	–	5.21	6.21	6.21	0.975	–	–	–	–
Cc1nc(NC(=N)N)nc2cc(OCc3ccc(S(C)(=O)=O)cc3)ccc12 [TDI-014182]	6.65	–	80.3	–	6.65	0.222	0.222	0.9	77.6	90.2	6.65	activation at 0.4115 µM (Ae. aegypti NPYLR7; [4]): 32%; activation at 1.2346 µM (Ae. aegypti NPYLR7; [4]): 62.2%
Cc1nc(NC(=N)N)nc2cc(OC3CCCc4ccccc43)ccc12 (stereo not shown) [TDI-014183]	4.86	4.86	–	–	4.86	13.7	13.7	0.88	–	–	–	Host-seeking relative to saline (test compound % host-seeking/average matched saline % host-seeking) ([1]; listed as TDI-04183): 0.97
CNc1nc(NC(=N)N)nc2cc(OCc3ccc(OC)cc3)c(OC)cc12 [TDI-014185]	7.76	–	–	–	7.76	0.0175	0.0175	0.79	–	79.9	7.76	activation at 0.0457 µM (Ae. aegypti NPYLR7; [4]): 70.6%; activation at 0.1372 µM (Ae. aegypti NPYLR7; [4]): 69.2%
